Measurements as given in US20210330661A1 (China Medical University, priority 2020, published 2021).
Where two headings read alike, the source gives them in different places.

Columns and labels:
[1] = tested on: SARS-CoV-2 (strain NTU02) in Vero E6 cells; type: cell-based; details: pre-treatment, 48 hours, MOI 0.0003, FIG. 13
[2] = tested on: SARS-CoV-2 (strain NTU02) in Vero E6 cells; experiment: microbe, parasite or virus in culture; type: cell-based
SARS-CoV-2 M^pro [3] = molecular target: T1, SARS-CoV-2 M^pro (Severe acute respiratory syndrome coronavirus 2, UniProt P0DTD1); experiment: FRET assay of SARS-CoV-2 Mpro activity with tafenoquine or hydroxychloroquine; type: biochemical; details: FIG. 1
[4] = tested on: SARS-CoV-2 (strain NTU02) in Vero E6 cells; type: cell-based; details: 5 μM; compared with DMSO; 3-day post infection; FIG. 12
SARS-CoV-2 M^pro [5] = molecular target: T1, SARS-CoV-2 M^pro; experiment: FRET assay of SARS-CoV-2 Mpro activity with boceprevir or narlaprevir; type: biochemical; details: 50 μM drug; 1 μM Mpro; FIG. 6; read-out: inhibitory effect on SARS-CoV-2 Mpro activity
[6] = tested on: SARS-CoV-2 (strain NTU02) in Vero E6 cells; type: cell-based; details: pre-treated cells, various concentrations; compared to DMSO control; 3-day post infection; FIG. 14
SARS-CoV-2 M^pro [7] = molecular target: T1, SARS-CoV-2 M^pro; type: binding; details: various concentrations; FIG. 2A, 2B
SARS-CoV-2 M^pro [8] = molecular target: T1, SARS-CoV-2 M^pro; experiment: Soluble fraction / stability of Mpro in presence of drug; details: concentration up to 500 μM; FIG. 4
SARS-CoV-2 M^pro [9] = molecular target: T1, SARS-CoV-2 M^pro; experiment: Limited proteolysis assay by trypsin digestion; details: drug 0, 30, 60, 90 μM; FIG. 5A, 5B
Description: To further probe the conformational changes of SARS-CoV-2 M^pro, the limited proteolysis assay by trypsin digestion is performed. […] Proteolysis is performed by mixing SARS-CoV-2 M^pro (0.8 mg/ml) with trypsin at a protease-to-protein ratio of 1:10 (w/w) in a reaction buffer (25 mM Tris at pH 8.0, 150 mM NaCl) at 37° C. for 30 minutes. The reaction is stopped by adding SDS sample loading buffer and boiling at 95° C. for 10 minutes and subjected to SDS-PAGE (4%-20%).

Structure (SMILES): CCC(CC)COC(=O)[C@H](C)N[P@](=O)(OC[C@H]1O[C@@](C#N)(c2ccc3c(N)ncnn23)[C@H](O)[C@@H]1O)Oc1ccccc1 [remdesivir]
- inhibition rate against viral RNA production ([1]; 1 μM remdesivir): ~26.3%

Structure (SMILES): COc1cc(C)c2c(Oc3cccc(C(F)(F)F)c3)c(OC)cc(NC(C)CCCN)c2n1 (centres unmarked) [tafenoquine]
- viral RNA versus DMSO-treated group ([2]; 2.5 μM, day not given, FIG. 10): no significant difference
- yield of viral RNA in cell supernatant ([2]; Day 1 to Day 2 after infection, FIG. 10): significantly represses
- EC50 ([2]; Severe acute respiratory syndrome coronavirus 2, Vero C1008, 48 h, read-out: half maximal effective concentration (EC50)): ~2500 nM
- inhibition at 90 µM (SARS-CoV-2 M^pro [3]; 90 μM, 4 μM Mpro, read-out: inhibition against SARS-CoV-2 Mpro): ~90%
- SARS-CoV-2-induced cytopathic effect [4]: significant decrease

Structure (SMILES): CCCC[C@H](NC(=O)[C@@H]1[C@@H]2[C@H](CN1C(=O)[C@@H](NC(=O)NC1(CS(=O)(=O)C(C)(C)C)CCCCC1)C(C)(C)C)C2(C)C)C(=O)C(=O)NC1CC1 [narlaprevir]
- inhibition at 50 µM (SARS-CoV-2 M^pro [5]): 64.1 ± 2.5%
- cytopathic effect induced by SARS-CoV-2 infection [6]: significantly lesser
- inhibition rate against viral RNA production ([1]; 40 μM narlaprevir): approximately 76.4%

Structure (SMILES): CCN(CCO)CCCC(C)Nc1ccnc2cc(Cl)ccc12 (centres unmarked) [hydroxychloroquine]
- shift in melting temperature / thermal stability of Mpro (SARS-CoV-2 M^pro [7]): no influence on the thermal stability
- stability of Mpro (SARS-CoV-2 M^pro [8]): does not influence the stability
- cleavage of Mpro by trypsin (SARS-CoV-2 M^pro [9]): no concentrations of hydroxychloroquine tested reduce the cleavage
- inhibitory effect on SARS-CoV-2 Mpro (SARS-CoV-2 M^pro [3]; various concentrations): does not demonstrate any significant inhibitory effects

Structure (SMILES): CC(C)(C)NC(=O)N[C@H](C(=O)N1C[C@H]2[C@@H]([C@H]1C(=O)NC(CC1CCC1)C(=O)C(N)=O)C2(C)C)C(C)(C)C (some centres unmarked) [boceprevir]
- inhibition at 50 µM (SARS-CoV-2 M^pro [5]): 76.5 ± 4.8%
